Laboratory results as given in article PMC3220277 (2011).
Where two headings read alike, the source gives them in different places.

Columns and labels:
Format in all cases: binding
C3R/C86S S100A4 [1] = molecular target: T1, C3R/C86S S100A4 (Homo sapiens, UniProt P26447, C3R/C86S); test: competitive fluorescence anisotropy against FITC-MIIA
S100A4 [2] = molecular target: T2, S100A4 (Homo sapiens, UniProt P26447); test: as above
C3R/C86S S100A4 [3] = molecular target: T1, C3R/C86S S100A4; test: as above; remark: listed apart in the source
S100A4 [4] = molecular target: T2, S100A4; test: LC-ESI MS of covalent adducts

T2 sequence (P26447 2-101): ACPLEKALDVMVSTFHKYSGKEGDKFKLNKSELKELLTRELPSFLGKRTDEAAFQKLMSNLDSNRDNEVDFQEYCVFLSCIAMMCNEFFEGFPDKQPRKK
T1 sequence (P26447 2-101 C3R/C86S, one chain of several): as the sequence (P26447 2-101) above, with C2R, C85S counted along it

Compound	IC50 (C3R/C86S S100A4 [1]) [µM]	IC50 (S100A4 [2]) [µM]	IC50 (C3R/C86S S100A4 [3]) [µM]	IC50 (S100A4 [4]) [µM]
CC1=C(SCCO)C(=O)c2ccccc2C1=O [NSC 672121, 2-(2-hydroxyethylsulfanyl)-3-methylnaphthalene-1,4-dione]	5.3 ± 0.6	2.7 ± 0.7		
O=C1C(SCCO)=C(SCCO)C(=O)c2ccccc21 [NSC 95397, 2,3-bis[2-hydroxyethylsulfanyl]-1,4-naphthoquinone]			5.7 ± 0.5	1.8 ± 0.6
